Laboratory results: patent US20250123268A1, “COMPOSITIONS AND METHODS FOR ACCELERATING DEVELOPMENT OF CANCER THERAPEUTICS” (NetNoids Rx Laboratories, LLC, priority 2023, published 2025)
Entries after “also recorded” stand apart in the source; their conditions may differ.

How the values were obtained:
TNBC-1 = test: COMPASS C1/C3a/C3c drug regimen testing, TNBC-1 tumor volume; format: cell-based, human; conditions: for tumor volume (efficacy): 50 nM & 500 nM
Method: Methods: COMPASS Platforms for TIME Modeling for Drug Regimen Testing: I.A. C1/C3a/C3c for TNBC-1 against 1) Doxorubicin 50 nM & 500 nM (Control: DMSO 0.01%), 2) Sacituzumab 5 nM & 20 nM [Control: PBS 0.01%] via continuous treatment w/initial administration at post-seeding Day 1; I.B. C2/C3b/C3d for GBC-1 against 1) Gemcitabine+Cisplatin 1 μM & 10 μM (G+C 7:1 ratio) (Control: DMSO 0.03%) 2) Gemcitabine+Cisplatin 1 μM+Durvalumab 0.1 nM; Gemcitabine+Cisplatin 10 μM+Durvalumab 1 nM (Control: DMSO 0.03%) (G+C 7:1 ratio) via continuous treatment w/initial administration at post-seeding Day 3; II. C1/C3b/C3d for HUAS-1 against 1) HSP90i 50 nM & 100 nM, (Control: DMSO 0.01-0.5%), 2) HSP90i 50 nM+Doxorubicin 50 nM & HSP90i 100 nM+Doxorubicin 50 nM, (Control: DMSO 0.01-0.5%) via continuous treatment w/initial administration at post-seeding Day 3; • Experimental Set-Up: Series (C1/C2) & representative parallel experimentation (C3), n=3 per group; • Evaluation: Imaging—Phase Contrast Imaging via Biotek Cytation 5 (Agilent) with partial well plug for object selection ([…] for C1/C2 & […] for C3) towards tumor volume analysis at Timepoints Day 3 and Day 7/10; • Statistics: One-way ANOVA followed by Tukey's pairwise comparison, n=3, (p<0.05).
FIGS. 28A-L: Common Cancers (TNBC and GBC) vs Established Drug Regimens (Doxorubicin/Sacituzumab and Gemcitabine+Cisplatin+/−Durvalumab, respectively) treatment profiles across progressing, appropriately-matched COMPASS Platforms at Day 3 and Day 10 Timepoints. Compass 1 is used for small molecules. Compass 2 is used in studies when Durvalumab (which is an anti-PDL 1 inhibitor) is added and it works by using the immune system (checkpoint inhibitor), which makes the immune system […]. Sub-studies highlighting the versatility of COMPASS platforms in the generation of specific Tumor-Immune-Microenvironment Models—designed appropriately for intended drug mechanism testing of already clinically-approved treatment regimens. […]

[1] = tested on: PDL-1 positive PDT of TNBC; test: PDL-1 positive TNBC PDT tumor volume, anti-PD1 treatment, with/without PBMCs (COMPASS 2); format: cell-based, human; conditions: same model without the addition of PBMCs
Method: All experiments were conducted with n=3 replicates and data was analyzed by One Way ANOVA followed by student's t-test to check for statistical significance.

Q: How did the “tumor volume (efficacy)” value (TNBC-1; C1 model) turn out when `COc1cccc2c1C(=O)c1c(O)c3c(c(O)c1C2=O)C[C@@](O)(C(=O)CO)C[C@@H]3O[C@H]1C[C@H](N)[C@H](O)[C@H](C)O1` [Doxorubicin] was run?
A: slight efficacy

Q: And the “tumor volume (efficacy)” value (TNBC-1; C3 models)?
A: potential resistance

Q: Pembrolizumab [anti-PD1 inhibitor] was tested. Which “immune checkpoint mediated reduction in tumor volume” value [1] did it give?
A: not observed

Q: How did the “tumor volume vs control” value (TNBC-1; 5 nM & 20 nM, supplemental structural matrix & oxygenation (C3c), p=0.04) turn out when Sacituzumab was run?
A: revealed efficacy in oxygenated conditions; also recorded: tumor volume reduction vs control
